Results from paper PMC9065260 (Frontiers in Pharmacology, 2022).
Values joined by “and” are separate entries in the source; they are usually repeats but may differ in a detail not shown here. Equal entries are not always repeated.

Columns and labels:
[1] = test system: KYSE450 cells; experiment: MTT assay for cell proliferation and cytotoxicity; type: cell-based; conditions: Homo sapiens, KYSE-450; MTT, 48 h, mean ± SD; read-out: IC50 KYSE450
Procedure: (§3) The compounds were dissolved in DMSO to make a 50 mM stock solution and were diluted to the concentration of working solutions with the complete growth medium before administration.
(§4) Cells were seeded in 96-well plates with densities of 2,200–2,500 cells/well in 100 μL. One day after seeding, the concentration of the test compounds between 0 and 50 μM, 0.1% DMSO was added to cells as control. […] After 48 h, MTT was added and incubated in the plate for 1–4 h in the incubator.

[2] = target: T1, EGFR wild-type protein (H672-E410) (Homo sapiens, UniProt P00533); experiment: Surface plasmon resonance (SPR) EGFR protein affinity; type: binding; conditions: immobilized wild-type EGFR
T1 construct: purchased Active MOTIF 31165
Procedure: Biacore T-200 (GE healthcare, Waukesha, WI, United States) equipment was used for the study. […] During the interaction, the changes in the refractive index were measured in real time to allow the plotting of the results of interaction as response units versus time. The interaction results were analyzed with BIA evaluation 3.0 software.

[3] = test system: KYSE450 cells; experiment: Cell cycle analysis by flow cytometry; type: cell-based, human; conditions: 24 h
Procedure: (§5) KYSE450 and KYSE450TR cells were plated in 6-well plates with a density of 1 × 10^5 cells/well and cultured overnight to attach. […] After trypsinization treatment, the cells were collected by centrifugation. The cell pellet was re-suspended in 70% ethanol at −20°C for at least 3 h. […] Cells were re-transferred to the BD FACSCalibur™ Flow Cytometer. All analyses were performed with FlowJo software v105.3.6.

[4] = test system: KYSE450TR cells; experiment: Cell cycle analysis by flow cytometry; type: cell-based, human; conditions: 24 h
Procedure: as §5

[5] = test system: KYSE410TR cells; experiment: MTT assay, drug-resistant cell line; type: cell-based, human; conditions: Homo sapiens; MTT, paclitaxel-resistant esophageal cancer cell line; read-out: IC50 KYSE410TR
Procedure: as §3, §4

[6] = test system: H1650 cells; experiment: MTT assay for cell proliferation and cytotoxicity; type: cell-based; conditions: Homo sapiens, NCI-H1650; MTT, 48 h, mean ± SD; read-out: IC50 H1650
Procedure: as §3, §4

[7] = test system: KYSE70 cells; experiment: MTT assay for cell proliferation and cytotoxicity; type: cell-based; conditions: Homo sapiens, KYSE-70; MTT, 48 h, mean ± SD; read-out: IC50 KYSE70
Procedure: as §3, §4

[8] = test system: KYSE450TR cells; experiment: Flow cytometry detection for cell apoptosis (Annexin V/PI); type: cell-based, human; conditions: 48 h
Procedure: (§1) Cell apoptosis analysis was carried out by flow cytometry using the Annexin V/PI apoptosis methods. […] The cells were harvested and incubated with 250 μL of 1 × Annexin V binding buffer containing 5 μL of PI and 5 μL of FITC Annexin V (final concentration 1.8 μg/ml, Biolegend cat: 640945) for 15 min at room temperature in the dark. Then 200 µL of 1 × binding buffer was added for flow cytometry analysis (BD FACSCalibur™ Flow Cytometer).

[9] = test system: KYSE450 cells; experiment: as above; type: cell-based, human; conditions: 48 h
Procedure: as §1

[10] = test system: KYSE450 cells (caspase-3, cytochrome-c, PARP); experiment: Western blot of apoptosis-related marker proteins; type: cell-based, human; conditions: KYSE450, 4 μM, 6, 12 and 24 h vs control at 0 h
Procedure: KYSE450 cells (3 × 10^5/well) were incubated overnight in 10 square petri dishes and then treated with compound 3d at 4 μM for 0, 6, 12, and 24 h. Cells treated with 0.1% DMSO were used as control. Then, the cells were harvested, and total proteins were extracted. […] The membrane was blocked for 1 h, then incubated overnight with a 1:1000 dilution of anti-caspase-3, anti-cytochrome-c, and anti-PARP, or 1 : 3,000 dilution of anti-β-action primary antibody at 4°C. Finally, 1 : 3,000 anti-rabbit secondary antibodies were incubated for 2 h at room temperature. Protein bands were developed by chemiluminescence.

[11] = test system: KYSE70TR cells; experiment: MTT assay, drug-resistant cell line; type: cell-based, human; conditions: Homo sapiens; MTT, paclitaxel-resistant esophageal cancer cell line; read-out: IC50 KYSE70TR
Procedure: as §3, §4

[12] = test system: HCC827 cells; experiment: MTT assay for cell proliferation and cytotoxicity; type: cell-based; conditions: Homo sapiens, 48 h, mean ± SD
Procedure: as §3, §4

[13] = test system: human esophageal epithelial cell SHEE; experiment: MTT assay, toxicity against normal cells; type: cell-based; conditions: MTT, normal human esophageal epithelial cells, mean ± SD, read-out: IC50 SHEE
Procedure: Cells were seeded in 96-well plates with densities of 2,200–2,500 cells/well in 100 μL. One day after seeding, the concentration of the test compounds between 0 and 50 μM, 0.1% DMSO was added to cells as control. Approximately 2200-2500 transfected cells in 100 μL were incubated in quintuplicate in 96-well plates. After 48 h, MTT was added and incubated in the plate for 1–4 h in the incubator.

[14] = target: T2, EGFR mutant protein (672-1210, L858R) (Homo sapiens, UniProt P00533, L858R); experiment: Surface plasmon resonance (SPR) EGFR protein affinity; type: binding
T2 construct: the EGFR mutant type (672-1210, L858R, Active MOTIF, cat: 81200); purchased Active MOTIF 81200
Procedure: Surface plasmon resonance experiments were carried out to evaluate the interaction between 3d with the EGFR wild-type (0.468 μg/μL, Active MOTIF, cat: 31165) and the EGFR mutant type (672-1210, L858R, Active MOTIF, cat: 81200). The interaction of erlotinib with wild-type EGFR was also studied. Biacore T-200 (GE healthcare, Waukesha, WI, United States) equipment was used for the study. First, the EGFR wild-type (0.468 μg/μL, Active MOTIF, cat: 31165) and the EGFR mutant type (672-1210, L858R, Active MOTIF, cat: 81200) were covalently immobilized at densities of 2000 response units onto a CM5 sensor chip. Then, 3d dissolved in DMSO was injected at concentrations between 0.064 and 5,000 nM at 25°C. […] During the interaction, the changes in the refractive index were measured in real time to allow the plotting of the results of interaction as response units versus time. The interaction results were analyzed with BIA evaluation 3.0 software.

[15] = test system: KYSE450TR cells; experiment: MTT assay, drug-resistant cell line; type: cell-based, human; conditions: Homo sapiens; MTT, paclitaxel-resistant esophageal cancer cell line; read-out: IC50 KYSE450TR
Procedure: as §3, §4

[16] = test system: HCC827GR cells; experiment: MTT assay, drug-resistant cell line; type: cell-based, human; conditions: Homo sapiens; MTT, gefitinib-resistant lung cancer cell line; read-out: IC50 HCC827GR
Procedure: as §3, §4

[17] = test system: H1650TR cells; experiment: MTT assay, drug-resistant cell line; type: cell-based, human; conditions: Homo sapiens; MTT, paclitaxel-resistant lung cancer cell line; read-out: IC50 H1650TR
Procedure: as §3, §4

[18] = test system: KYSE450TR cells; experiment: Plate clone formation assay; type: cell-based, human; conditions: KYSE450TR, 2.5, 5 and 10 µM, 10 days
Procedure: (§2) Cells were seeded in 6-well plates with a density of 200 cells/well and cultured overnight for attachment. […] Medium with or without compounds was changed every 48 h. When colony formation was visible, the medium was discharged. Then, the colonies were washed with cold PBS, fixed with 4% paraformaldehyde (PFA) for at least 30 min, and then stained with 0.2% crystal violet solution in 100% ethanol for 20 min.

[19] = test system: KYSE450 cells; experiment: Plate clone formation assay; type: cell-based, human; conditions: KYSE450, 2.5, 5 and 10 µM, 10 days
Procedure: as §2

[20] = test system: HCC827 cells; experiment: Plate clone formation assay; type: cell-based, human; conditions: HCC827, 2.5, 5 and 10 µM, 10 days
Procedure: as §2

[21] = test system: HCC827GR cells; experiment: Plate clone formation assay; type: cell-based, human; conditions: HCC827GR, 2.5, 5 and 10 µM, 10 days
Procedure: as §2

[22] = test system: KYSE410 cells; experiment: MTT assay for cell proliferation and cytotoxicity; type: cell-based; conditions: Homo sapiens, KYSE-410; MTT, 48 h, mean ± SD; read-out: IC50 KYSE410
Procedure: as §3, §4

COCCOc1cc2ncnc(Nc3cccc(-c4cn(Cc5cc(Br)cc(Br)c5)nn4)c3)c2cc1OCCOC [Compound 3d, [6,7-Bis-(2-Methoxy-Ethoxy)-Quinazolin-4-yl]-{3-[1-(3,5-Dibromo-Benzyl)-1H-(1,2,3)Triazol-4-yl]-Phenyl}-Amine]
IC50 [1]: 4.23 ± 0.19 µM | Rmax [2]: 12.9 RU | Kd ([2]; 25°C): 6.88 µM and 6.89 µM | ratio of cells in G0/G1 phase ([3]; KYSE450, 3.5 μM): 57.83% | ratio of cells in G2/M phase ([3]; KYSE450, 3.5 μM): 16.5% | ratio of cells in S phase ([3]; KYSE450, 3.5 μM): 25.67% | ratio of cells in G0/G1 phase ([3]; KYSE450, 7 μM): 56.56% | ratio of cells in G2/M phase ([3]; KYSE450, 7 μM): 18.74% | ratio of cells in S phase ([3]; KYSE450, 7 μM): 24.7% | ratio of cells in G0/G1 phase ([3]; KYSE450, 14 μM): 60.37% | ratio of cells in G2/M phase ([3]; KYSE450, 14 μM): 15.47% | ratio of cells in S phase ([3]; KYSE450, 14 μM): 24.16% | ratio of cells in G0/G1 phase ([3]; KYSE450, 28 μM): 55.21% | ratio of cells in G2/M phase ([3]; KYSE450, 28 μM): 20.66% | ratio of cells in S phase ([3]; KYSE450, 28 μM): 24.13% | cell cycle phase in which cells are arrested ([3]; KYSE450, 3.5-28 μM): G0/G1 phase | ratio of cells in G0/G1 phase ([4]; 3.5 μM): 34.92% | ratio of cells in G2/M phase ([4]; 3.5 μM): 22.86% | ratio of cells in S phase ([4]; 3.5 μM): 42.22% | ratio of cells in G0/G1 phase ([4]; 7 μM): 37.56% | ratio of cells in G2/M phase ([4]; 7 μM): 23.94% | ratio of cells in S phase ([4]; 7 μM): 38.50% | ratio of cells in G0/G1 phase ([4]; 14 μM): 43.34% | ratio of cells in G2/M phase ([4]; 14 μM): 23.39% | ratio of cells in S phase ([4]; 14 μM): 33.27% | ratio of cells in G0/G1 phase ([4]; 28 μM): 41.19% | ratio of cells in G2/M phase ([4]; 28 μM): 27.28% | ratio of cells in S phase ([4]; 28 μM): 31.53% | cell cycle phase in which cells are arrested ([4]; 3.5-28 μM): G2/M phase | IC50 [5]: 7.91 ± 0.61 µM | IC50 [6]: 2.99 ± 0.13 µM | IC50 [7]: 5.43 ± 0.21 µM | proportion of apoptotic cells ([8]; 5 μM): 44.12% | proportion of apoptotic cells ([8]; 10 μM): 48.77% | proportion of apoptotic cells ([9]; KYSE450, 5 μM): 24.50% | proportion of apoptotic cells ([9]; KYSE450, 10 μM): 69.64% | caspase-3 protein level [10]: higher than those in the control at 0 h | cleaved PARP protein level [10]: higher than those of the control at 0 h | cytochrome-c protein level [10]: higher than those in the control at 0 h | IC50 [11]: 7.17 ± 0.73 µM | IC50 [12]: 8.17 ± 0.42 µM | IC50 [13]: > 50 µM | Kd ([14]; immobilized mutant EGFR (L858R), 25°C): 3.12 µM and 3.13 µM | Rmax ([14]; immobilized mutant EGFR (mEGFR)): 21.16 RU | IC50 [15]: 10 ± 0.75 µM | IC50 [16]: 2.38 ± 0.17 µM | IC50 [17]: 5.76 ± 0.33 µM | inhibition effect on colony formation [18]: more significant than that of erlotinib | inhibition effect on colony formation [19]: more significant than that of erlotinib | inhibition effect on colony formation [20]: more significant than that of erlotinib | inhibition effect on colony formation [21]: more significant than that of erlotinib | IC50 [22]: 6.91 ± 0.4 µM
